Data on six compounds can be found in ChEMBL document CHEMBL1122751, “Structure-activity relationships of phenytoin-like anticonvulsant drugs” (1984).

In this assay the test system is Mus musculus. Briefly: Antiepileptic potency in the maximal electroshock seizure test. Compound was administered orally to male NMRI mice. It is filed as functional. The note with it: po. Background: In the maximal electroshock model the usual endpoint is tonic extension of the hind limbs.
As to `CN1C(=O)CC(c2ccccc2)(c2ccccc2)C1=O`, the 50% effect level (ED50) was put at a dose of 357 µmol/kg.

The compound `O=C1NCNC1(c1ccccc1)c1ccccc1` [DOXENITOIN] came in with an ED50 of 129 µmol/kg.

Regarding `CC1CC(c2ccccc2)(c2ccccc2)C(=O)N1C` (stereo unspecified), the median effective dose (ED50) amounted to 3830 µmol/kg. The figure for `CN1C(=O)NC(c2ccccc2)(c2ccccc2)C1=O` is 149 µmol/kg; for `O=C1NC(=O)C(c2ccccc2)(c2ccccc2)N1` [PHENYTOIN] it is 28 µmol/kg. In turn, `O=C1CC(c2ccccc2)(c2ccccc2)C(=O)N1` displayed an ED50 of 107 µmol/kg.

What is called ED50 is the midpoint of the dose-response relation. Lower therefore signals an effect at a small dose.
